Activity calls are given as the source filed them. Cut-off read from the data, not from the text of the source, for most assays here: actives have a measured Kd and inactives only a lower limit.
biological target: T1, Receptor-type tyrosine-protein kinase FLT3 (Homo sapiens, UniProt P36888)
T1 sequence (P36888 whole entry): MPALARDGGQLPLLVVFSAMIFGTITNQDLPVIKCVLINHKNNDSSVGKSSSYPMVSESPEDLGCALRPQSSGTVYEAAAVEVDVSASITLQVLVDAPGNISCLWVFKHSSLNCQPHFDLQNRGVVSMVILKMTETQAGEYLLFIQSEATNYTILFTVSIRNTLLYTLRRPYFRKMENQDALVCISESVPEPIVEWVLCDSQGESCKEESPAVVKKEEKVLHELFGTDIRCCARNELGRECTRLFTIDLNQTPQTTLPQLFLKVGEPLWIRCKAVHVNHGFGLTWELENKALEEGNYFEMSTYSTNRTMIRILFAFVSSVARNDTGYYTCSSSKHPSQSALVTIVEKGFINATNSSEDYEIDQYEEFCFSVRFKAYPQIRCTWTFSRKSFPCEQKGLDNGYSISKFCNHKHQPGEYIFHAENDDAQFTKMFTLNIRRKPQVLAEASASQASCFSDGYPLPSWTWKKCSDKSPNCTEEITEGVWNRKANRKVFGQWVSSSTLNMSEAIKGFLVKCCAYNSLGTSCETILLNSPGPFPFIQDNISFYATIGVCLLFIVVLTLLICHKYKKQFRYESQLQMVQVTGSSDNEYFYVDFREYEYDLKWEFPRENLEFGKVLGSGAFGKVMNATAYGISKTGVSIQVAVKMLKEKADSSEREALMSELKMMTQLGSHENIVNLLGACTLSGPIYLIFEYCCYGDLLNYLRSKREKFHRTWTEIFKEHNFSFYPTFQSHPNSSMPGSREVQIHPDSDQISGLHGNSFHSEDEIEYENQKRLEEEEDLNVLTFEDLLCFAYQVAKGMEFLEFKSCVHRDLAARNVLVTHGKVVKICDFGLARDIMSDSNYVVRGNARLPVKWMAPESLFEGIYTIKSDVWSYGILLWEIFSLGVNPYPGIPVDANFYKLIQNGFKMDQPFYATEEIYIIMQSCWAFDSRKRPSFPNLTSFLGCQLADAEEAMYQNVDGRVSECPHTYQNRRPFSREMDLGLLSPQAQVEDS
Note: in the data inactive means no Kd found up to 30 µM.

| SMILES | Kd |
| --- | --- |
| N[C@@H]1CCCN(c2c(/C=C3\SC(=O)NC3=O)cccc2-c2ccccc2)C1 | > 30 µM (inactive) |
| Cc1ccc(S(=O)(=O)Nc2nc3ccccc3nc2Nc2ccc3nsnc3c2)cc1 | > 30 µM (inactive) |
| CN1CC[C@@H](c2c(O)cc(O)c3c(=O)cc(-c4ccccc4Cl)oc23)[C@@H]1CO | > 30 µM (inactive) |
| Cc1cc(-c2cc(O)ccc2Cl)cc2nnc(Nc3ccc(OCCN4CCCC4)cc3)nc12 | > 30 µM (inactive) |
| CNS(=O)(=O)Nc1nccc(Cc2c(C)c3ccc(Oc4ncccn4)cc3oc2=O)c1F [AVUTOMETINIB] | > 30 µM (inactive) |
| COc1cc2nccc(Oc3ccc(NC(=O)NC4CC4)c(Cl)c3)c2cc1C(N)=O [LENVATINIB] | > 30 µM (inactive) |
| C[C@@H](c1ccc2nccn2c1)n1nnc2ncc(-c3cnn(C)c3)nc21 [SAVOLITINIB] | > 30 µM (inactive) |

biological target: Mitogen-activated protein kinase kinase kinase kinase 1 (Homo sapiens, UniProt Q92918)
Sequence (Q92918 whole entry): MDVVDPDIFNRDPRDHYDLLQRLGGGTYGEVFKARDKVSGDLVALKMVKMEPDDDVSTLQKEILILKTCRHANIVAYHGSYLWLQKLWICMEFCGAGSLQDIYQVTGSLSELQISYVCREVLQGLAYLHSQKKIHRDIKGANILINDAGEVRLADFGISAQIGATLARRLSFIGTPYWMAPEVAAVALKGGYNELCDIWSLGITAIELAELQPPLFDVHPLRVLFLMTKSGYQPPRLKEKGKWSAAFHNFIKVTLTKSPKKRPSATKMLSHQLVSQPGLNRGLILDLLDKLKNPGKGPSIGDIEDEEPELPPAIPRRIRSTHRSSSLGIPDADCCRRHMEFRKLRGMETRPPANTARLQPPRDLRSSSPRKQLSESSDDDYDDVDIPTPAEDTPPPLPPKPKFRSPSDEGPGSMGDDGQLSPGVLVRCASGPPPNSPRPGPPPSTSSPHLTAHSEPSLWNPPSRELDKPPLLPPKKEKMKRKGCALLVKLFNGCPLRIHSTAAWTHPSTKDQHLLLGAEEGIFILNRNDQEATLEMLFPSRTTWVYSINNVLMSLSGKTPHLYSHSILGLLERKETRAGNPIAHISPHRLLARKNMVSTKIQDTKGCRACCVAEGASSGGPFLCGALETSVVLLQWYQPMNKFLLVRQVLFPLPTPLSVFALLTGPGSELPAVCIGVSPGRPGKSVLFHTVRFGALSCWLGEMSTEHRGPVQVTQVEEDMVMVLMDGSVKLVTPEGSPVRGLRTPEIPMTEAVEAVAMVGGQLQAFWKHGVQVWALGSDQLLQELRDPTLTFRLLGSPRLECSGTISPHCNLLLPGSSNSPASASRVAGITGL

| SMILES | Kd |
| --- | --- |
| N[C@@H]1CCCN(c2c(/C=C3\SC(=O)NC3=O)cccc2-c2ccccc2)C1 | > 30 µM (inactive) |
| Cc1ccc(S(=O)(=O)Nc2nc3ccccc3nc2Nc2ccc3nsnc3c2)cc1 | > 30 µM (inactive) |
| CN1CC[C@@H](c2c(O)cc(O)c3c(=O)cc(-c4ccccc4Cl)oc23)[C@@H]1CO | > 30 µM (inactive) |
| Cc1cc(-c2cc(O)ccc2Cl)cc2nnc(Nc3ccc(OCCN4CCCC4)cc3)nc12 | > 30 µM (inactive) |
| Cc1nc(N)sc1-c1ccnc(Nc2ccc(N3CCOCC3)cc2)n1 [CYC-116] | > 30 µM (inactive) |
| Cc1cc(Nc2cc(N3CCN(C)CC3)nc(/C=C/c3ccccc3)n2)n[nH]1 [ENMD-2076] | > 30 µM (inactive) |
| COc1cc2nccc(Oc3ccc(NC(=O)NC4CC4)c(Cl)c3)c2cc1C(N)=O [LENVATINIB] | > 30 µM (inactive) |

biological target: T2, Mitogen-activated protein kinase kinase kinase kinase 3 (Homo sapiens, UniProt Q8IVH8)
T2 sequence (Q8IVH8 whole entry): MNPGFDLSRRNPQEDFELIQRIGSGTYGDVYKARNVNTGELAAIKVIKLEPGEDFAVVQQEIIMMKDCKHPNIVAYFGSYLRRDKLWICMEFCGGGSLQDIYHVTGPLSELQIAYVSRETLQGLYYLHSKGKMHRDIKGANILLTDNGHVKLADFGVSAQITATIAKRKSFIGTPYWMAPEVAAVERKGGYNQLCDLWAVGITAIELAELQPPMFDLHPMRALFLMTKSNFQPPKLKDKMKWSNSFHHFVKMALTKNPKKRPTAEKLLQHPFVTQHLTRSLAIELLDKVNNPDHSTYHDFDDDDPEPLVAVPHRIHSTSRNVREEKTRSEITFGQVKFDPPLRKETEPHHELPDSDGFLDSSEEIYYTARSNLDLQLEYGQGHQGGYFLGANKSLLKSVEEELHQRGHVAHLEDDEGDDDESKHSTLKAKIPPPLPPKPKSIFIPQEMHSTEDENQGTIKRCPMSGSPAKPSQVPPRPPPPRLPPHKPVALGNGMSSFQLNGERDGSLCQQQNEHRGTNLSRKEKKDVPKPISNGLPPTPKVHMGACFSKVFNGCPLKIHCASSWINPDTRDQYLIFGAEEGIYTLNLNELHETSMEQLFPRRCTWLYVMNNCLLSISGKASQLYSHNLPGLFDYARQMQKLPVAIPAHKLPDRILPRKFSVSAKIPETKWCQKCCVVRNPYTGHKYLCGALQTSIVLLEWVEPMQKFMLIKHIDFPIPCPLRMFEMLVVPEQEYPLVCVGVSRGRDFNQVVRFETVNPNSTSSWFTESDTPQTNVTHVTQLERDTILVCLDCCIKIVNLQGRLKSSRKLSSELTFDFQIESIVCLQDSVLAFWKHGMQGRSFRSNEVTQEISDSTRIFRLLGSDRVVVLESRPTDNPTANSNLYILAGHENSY

| SMILES | Kd |
| --- | --- |
| N[C@@H]1CCCN(c2c(/C=C3\SC(=O)NC3=O)cccc2-c2ccccc2)C1 | > 30 µM (inactive) |
| Cc1ccc(S(=O)(=O)Nc2nc3ccccc3nc2Nc2ccc3nsnc3c2)cc1 | > 30 µM (inactive) |
| CN1CC[C@@H](c2c(O)cc(O)c3c(=O)cc(-c4ccccc4Cl)oc23)[C@@H]1CO | > 30 µM (inactive) |
| Cc1cc(-c2cc(O)ccc2Cl)cc2nnc(Nc3ccc(OCCN4CCCC4)cc3)nc12 | > 30 µM (inactive) |
| CNS(=O)(=O)Nc1nccc(Cc2c(C)c3ccc(Oc4ncccn4)cc3oc2=O)c1F [AVUTOMETINIB] | > 30 µM (inactive) |
| Cc1cc(Nc2cc(N3CCN(C)CC3)nc(/C=C/c3ccccc3)n2)n[nH]1 [ENMD-2076] | > 30 µM (inactive) |
| C[C@@H](c1ccc2nccn2c1)n1nnc2ncc(-c3cnn(C)c3)nc21 [SAVOLITINIB] | > 30 µM (inactive) |

biological target: Maternal embryonic leucine zipper kinase (Homo sapiens, UniProt Q14680)
Sequence (Q14680 whole entry): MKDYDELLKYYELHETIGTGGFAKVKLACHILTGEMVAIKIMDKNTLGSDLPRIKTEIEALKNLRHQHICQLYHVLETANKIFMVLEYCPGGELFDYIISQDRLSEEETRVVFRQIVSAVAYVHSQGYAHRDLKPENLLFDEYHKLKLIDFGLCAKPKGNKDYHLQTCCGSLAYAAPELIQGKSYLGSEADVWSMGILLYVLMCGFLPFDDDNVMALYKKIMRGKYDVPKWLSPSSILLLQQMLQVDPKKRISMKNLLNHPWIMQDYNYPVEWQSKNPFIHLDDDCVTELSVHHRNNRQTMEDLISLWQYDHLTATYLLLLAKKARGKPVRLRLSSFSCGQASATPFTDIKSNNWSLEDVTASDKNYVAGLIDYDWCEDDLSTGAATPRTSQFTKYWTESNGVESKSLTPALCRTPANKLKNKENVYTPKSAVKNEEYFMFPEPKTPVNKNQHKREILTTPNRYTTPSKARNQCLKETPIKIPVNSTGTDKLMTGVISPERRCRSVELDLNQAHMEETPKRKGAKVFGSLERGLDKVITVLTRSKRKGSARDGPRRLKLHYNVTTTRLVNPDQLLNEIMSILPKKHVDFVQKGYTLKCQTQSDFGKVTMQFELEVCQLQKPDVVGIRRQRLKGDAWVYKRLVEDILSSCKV

| SMILES | Kd |
| --- | --- |
| N[C@@H]1CCCN(c2c(/C=C3\SC(=O)NC3=O)cccc2-c2ccccc2)C1 | > 30 µM (inactive) |
| Cc1ccc(S(=O)(=O)Nc2nc3ccccc3nc2Nc2ccc3nsnc3c2)cc1 | > 30 µM (inactive) |
| CN1CC[C@@H](c2c(O)cc(O)c3c(=O)cc(-c4ccccc4Cl)oc23)[C@@H]1CO | > 30 µM (inactive) |
| Cc1cc(-c2cc(O)ccc2Cl)cc2nnc(Nc3ccc(OCCN4CCCC4)cc3)nc12 | > 30 µM (inactive) |
| CNS(=O)(=O)Nc1nccc(Cc2c(C)c3ccc(Oc4ncccn4)cc3oc2=O)c1F [AVUTOMETINIB] | > 30 µM (inactive) |
| COc1cc2nccc(Oc3ccc(NC(=O)NC4CC4)c(Cl)c3)c2cc1C(N)=O [LENVATINIB] | > 30 µM (inactive) |
| C[C@@H](c1ccc2nccn2c1)n1nnc2ncc(-c3cnn(C)c3)nc21 [SAVOLITINIB] | > 30 µM (inactive) |

biological target: T3, Serine/threonine-protein kinase Nek9 (Homo sapiens, UniProt Q8TD19)
T3 sequence (Q8TD19 whole entry): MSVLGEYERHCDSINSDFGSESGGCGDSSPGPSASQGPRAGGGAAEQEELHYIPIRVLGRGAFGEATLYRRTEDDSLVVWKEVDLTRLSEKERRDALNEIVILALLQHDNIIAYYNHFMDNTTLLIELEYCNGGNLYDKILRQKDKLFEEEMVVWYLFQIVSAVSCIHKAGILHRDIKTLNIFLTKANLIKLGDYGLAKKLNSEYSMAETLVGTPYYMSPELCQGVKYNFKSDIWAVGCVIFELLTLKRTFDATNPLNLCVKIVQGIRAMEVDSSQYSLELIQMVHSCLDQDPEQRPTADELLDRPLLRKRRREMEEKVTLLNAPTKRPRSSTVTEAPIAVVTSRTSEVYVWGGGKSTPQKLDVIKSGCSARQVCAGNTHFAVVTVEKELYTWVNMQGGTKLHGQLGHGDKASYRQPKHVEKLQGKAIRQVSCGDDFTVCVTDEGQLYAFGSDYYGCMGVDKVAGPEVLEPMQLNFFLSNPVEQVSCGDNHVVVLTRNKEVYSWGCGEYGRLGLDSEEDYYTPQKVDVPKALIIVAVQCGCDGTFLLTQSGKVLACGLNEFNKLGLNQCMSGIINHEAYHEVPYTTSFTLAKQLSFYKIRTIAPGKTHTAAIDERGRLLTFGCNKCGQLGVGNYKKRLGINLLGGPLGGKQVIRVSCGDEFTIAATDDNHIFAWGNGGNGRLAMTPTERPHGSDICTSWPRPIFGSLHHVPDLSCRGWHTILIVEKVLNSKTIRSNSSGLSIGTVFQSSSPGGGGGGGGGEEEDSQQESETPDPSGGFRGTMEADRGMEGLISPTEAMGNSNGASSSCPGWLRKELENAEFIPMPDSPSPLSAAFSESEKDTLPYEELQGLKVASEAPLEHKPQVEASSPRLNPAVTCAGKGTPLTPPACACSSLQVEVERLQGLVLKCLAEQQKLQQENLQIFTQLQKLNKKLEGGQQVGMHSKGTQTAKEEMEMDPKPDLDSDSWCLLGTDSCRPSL

| SMILES | Kd |
| --- | --- |
| N[C@@H]1CCCN(c2c(/C=C3\SC(=O)NC3=O)cccc2-c2ccccc2)C1 | > 30 µM (inactive) |
| Cc1ccc(S(=O)(=O)Nc2nc3ccccc3nc2Nc2ccc3nsnc3c2)cc1 | > 30 µM (inactive) |
| CN1CC[C@@H](c2c(O)cc(O)c3c(=O)cc(-c4ccccc4Cl)oc23)[C@@H]1CO | > 30 µM (inactive) |
| Cc1cc(-c2cc(O)ccc2Cl)cc2nnc(Nc3ccc(OCCN4CCCC4)cc3)nc12 | > 30 µM (inactive) |
| CNS(=O)(=O)Nc1nccc(Cc2c(C)c3ccc(Oc4ncccn4)cc3oc2=O)c1F [AVUTOMETINIB] | > 30 µM (inactive) |
| Cc1nc(N)sc1-c1ccnc(Nc2ccc(N3CCOCC3)cc2)n1 [CYC-116] | 0.133 µM (active) |
| COc1cc2nccc(Oc3ccc(NC(=O)NC4CC4)c(Cl)c3)c2cc1C(N)=O [LENVATINIB] | > 30 µM (inactive) |
| C[C@@H](c1ccc2nccn2c1)n1nnc2ncc(-c3cnn(C)c3)nc21 [SAVOLITINIB] | > 30 µM (inactive) |

biological target: Structural maintenance of chromosomes protein 2 (Homo sapiens, UniProt O95347)
Sequence (O95347 whole entry): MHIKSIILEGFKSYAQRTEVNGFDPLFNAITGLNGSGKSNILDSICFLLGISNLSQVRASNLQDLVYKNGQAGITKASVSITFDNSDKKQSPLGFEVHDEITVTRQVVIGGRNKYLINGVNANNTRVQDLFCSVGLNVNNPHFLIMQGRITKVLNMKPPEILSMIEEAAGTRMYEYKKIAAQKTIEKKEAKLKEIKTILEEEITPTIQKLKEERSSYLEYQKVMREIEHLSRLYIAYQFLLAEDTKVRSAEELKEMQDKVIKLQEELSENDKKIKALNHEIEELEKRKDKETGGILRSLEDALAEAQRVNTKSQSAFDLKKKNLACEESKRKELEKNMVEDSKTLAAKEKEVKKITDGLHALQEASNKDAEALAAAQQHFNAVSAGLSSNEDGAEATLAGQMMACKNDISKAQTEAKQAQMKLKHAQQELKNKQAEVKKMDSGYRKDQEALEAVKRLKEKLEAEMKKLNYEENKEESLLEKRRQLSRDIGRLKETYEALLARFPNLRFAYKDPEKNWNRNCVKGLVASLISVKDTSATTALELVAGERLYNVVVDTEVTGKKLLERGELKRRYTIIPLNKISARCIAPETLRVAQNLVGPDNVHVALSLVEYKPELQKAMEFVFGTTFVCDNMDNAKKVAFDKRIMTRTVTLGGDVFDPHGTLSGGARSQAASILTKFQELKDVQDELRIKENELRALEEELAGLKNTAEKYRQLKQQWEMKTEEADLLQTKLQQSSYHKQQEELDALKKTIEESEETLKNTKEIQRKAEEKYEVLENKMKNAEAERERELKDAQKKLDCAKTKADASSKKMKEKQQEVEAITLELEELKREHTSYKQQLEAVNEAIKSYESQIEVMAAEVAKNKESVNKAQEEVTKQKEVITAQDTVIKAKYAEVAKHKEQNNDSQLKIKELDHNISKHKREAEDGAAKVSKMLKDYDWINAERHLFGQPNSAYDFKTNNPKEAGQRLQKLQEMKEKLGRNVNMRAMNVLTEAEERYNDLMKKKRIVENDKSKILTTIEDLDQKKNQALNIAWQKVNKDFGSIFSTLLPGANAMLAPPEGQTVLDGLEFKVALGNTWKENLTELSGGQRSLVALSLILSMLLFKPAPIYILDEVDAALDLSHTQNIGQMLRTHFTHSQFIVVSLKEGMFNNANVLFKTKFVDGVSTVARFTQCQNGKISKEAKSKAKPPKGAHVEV

| SMILES | Kd |
| --- | --- |
| N[C@@H]1CCCN(c2c(/C=C3\SC(=O)NC3=O)cccc2-c2ccccc2)C1 | > 30 µM (inactive) |
| Cc1ccc(S(=O)(=O)Nc2nc3ccccc3nc2Nc2ccc3nsnc3c2)cc1 | > 30 µM (inactive) |
| CN1CC[C@@H](c2c(O)cc(O)c3c(=O)cc(-c4ccccc4Cl)oc23)[C@@H]1CO | > 30 µM (inactive) |
| Cc1cc(-c2cc(O)ccc2Cl)cc2nnc(Nc3ccc(OCCN4CCCC4)cc3)nc12 | > 30 µM (inactive) |
| CNS(=O)(=O)Nc1nccc(Cc2c(C)c3ccc(Oc4ncccn4)cc3oc2=O)c1F [AVUTOMETINIB] | > 30 µM (inactive) |
| Cc1nc(N)sc1-c1ccnc(Nc2ccc(N3CCOCC3)cc2)n1 [CYC-116] | > 30 µM (inactive) |
| Cc1cc(Nc2cc(N3CCN(C)CC3)nc(/C=C/c3ccccc3)n2)n[nH]1 [ENMD-2076] | > 30 µM (inactive) |
| COc1cc2nccc(Oc3ccc(NC(=O)NC4CC4)c(Cl)c3)c2cc1C(N)=O [LENVATINIB] | > 30 µM (inactive) |
| C[C@@H](c1ccc2nccn2c1)n1nnc2ncc(-c3cnn(C)c3)nc21 [SAVOLITINIB] | > 30 µM (inactive) |
